Results reported in US20230076733A1, “Combination Therapy” (AGENCY FOR SCIENCE, TECHNOLOGY AND RESEARCH, priority 2020, published 2023).
Where “and” joins values, the source holds several entries; their conditions need not be identical. Equal values may be shown once.

Key:
Type in all cases: cell-based
CFPAC-1 cells = test: soft agar colony formation assay, CFPAC-1 cells; settings: for Colony count: duplicate wells; for IC50: CFPAC-1 cells, pre-determined by dose-response assay
Description: The IC50 and EC50 values for each combination partner (a) and (b) with the specific cell lines are determined from the response plot. A dose-response assay for each combination partner and the combination at different concentrations based on the IC50 values of each combination partner was performed. Computed EC50-EC95 values were then generated by a software (as disclosed herein) based on the drug concentration and the respective colony growth numbers.
6. Cell lines used and number of cells seeded per well
(1) Base Layer—0.6% Agar per 300 μL per well.
Microwave the agar for 1-2 min so that it is completely melted. Add 5.4 ml of the melted agar into 21.6 ml of pre-warmed media (All media and agar preparation is made in excess for 2.5 plates). Aliquot 300 μl of the suspension into each well, avoiding the first and last columns of the plates. Fill the first and last columns of wells with 500 μl of sterile water or phosphate buffered saline. Incubate the plates in 37° C. incubator for 45 min-1 hr to allow agar to solidify.
(2) Middle Layer— 0.3% Agar plus corresponding number of cells per well
Trypsinize the adherent cells and suspend them in 5 ml of media. Determine the number of cells in the suspension and calculate the volume of cell suspension required for seeding. Mix the agar and media together first, excluding the volume of cell suspension. Add the cell suspension last into the mixture. Mix well and aliquot 250 μl into each well containing the base layer. Incubate the plates in a 37° C. incubator for 1-1.5 hrs to allow the agar to solidify.
Prepare the required concentration of compounds based on the IC50 values of each drug.
(Pre-determine the IC50 values for each drug with the corresponding cell-line using a dose-response assay)
Row A& B: Aliquot 250 μl of diluted Drug A per well
Row C&D: Aliquot 250 μl of diluted Drug B per well
Row E& F: Aliquot 250 μl of diluted Drug A and B mixed at 1:1 ratio for each well
Assay Results Analysis Method • 1. Score the colonies after 2 to 3 weeks depending on the colony forming status for different cell line. • 2. Before scoring the colonies, add 35 μl MTT (5 mg/ml) to the wells with cells and incubate at 37° C. for 2-3 hrs depending on the intensity of colour development. • 3. Once the colonies are stained, count the total number of colonies formed using the Oxford Optronix GelCount® instrument. • 4. Average the total number of colonies obtained for each drug dose point and represent it as a fraction over the control. This represents the fraction of colony growth. […] Incorporate the fraction of inhibition and the corresponding dose values into the Chou Talalay Software available online (http://www.combosyn.com/) to obtain the combination index values. • 6. The combination index values will give an indication as to whether the combined drugs are synergistic, antagonistic or additive in the treated cells, as shown in Table 2 below.
FIG. 8 illustrates a dose-response assay plate containing CFPAC-1 cells (Test 1) after testing compounds at different concentrations based on the IC50 values of each compound. CFPAC-1 is a cell line established from cystic fibrosis and pancreatic ductal adenocarcinoma.

HPAF-II cells = test: expression of DNA repair genes by qRT-PCR, HPAF-II cells; settings: 100 nM for 48 hr versus DMSO
Description: (§1) Tumors were homogenised in RLT buffer using a polytron homogenizer. Total RNA was isolated using RNAeasy kit (Qiagen, Germany) according to manufacturer's protocol. For qPT-PCR, RNA was reverse transcribed with iScript reverse transcriptase (BioRAD, Hercules, Calif., USA). Real time quantitative PCR (qPCR) was performed using SsoFast EvaGreen assay Supermix from BioRad (Hercules, Calif., USA). EPN1 and ACTB were used as housekeeping genes.
(§2) Inhibition of Wnt signalling reduces expression of DNA repair genes: HPAF-II, AsPC-1 or PaTu899S cells were treated with either DMSO or 100 nM compound of Formula (I) for 48 hr. The expression of the indicated genes was measured by qRT-PCR. FIGS. 14-16 illustrates the results.

PaTu899S cells = test: expression of DNA repair genes by qRT-PCR, PaTu899S cells; settings: 100 nM for 48 hr versus DMSO
Description: as §1, §2

AsPC-1 cells = test: expression of DNA repair genes by qRT-PCR, AsPC-1 cells; settings: 100 nM for 48 hr versus DMSO
Description: as §1, §2

[1] = CFPAC-1, Test 1, 0.25x IC50: dose Olaparib 1.5625, Ex 1 0.00675, combination both 1:1
[2] = CFPAC-1, Test 1, 0.5x IC50: dose Olaparib 3.125, Ex 1 0.0135, combination both 1:1
[3] = CFPAC-1, Test 1, 1x IC50: dose Olaparib 6.25, Ex 1 0.027, combination both 1:1
[4] = CFPAC-1, Test 1, 2x IC50: dose Olaparib 12.5, Ex 1 0.054, combination both 1:1
[5] = CFPAC-1, Test 1, 4x IC50: dose Olaparib 25, Ex 1 0.108, combination both 1:1
[6] = CFPAC-1, Test 2, 0.25x IC50: dose Olaparib 1.5625, Ex 1 0.00675, combination both 1:1
[7] = CFPAC-1, Test 2, 1x IC50: dose Olaparib 6.25, Ex 1 0.027, combination both 1:1
[8] = CFPAC-1, Test 2, 2x IC50: dose Olaparib 12.5, Ex 1 0.054, combination both 1:1
[9] = CFPAC-1, Test 2, 4x IC50: dose Olaparib 25, Ex 1 0.108, combination both 1:1

Row | SMILES | Colony count (CFPAC-1 cells; [1]) | Colony count (CFPAC-1 cells; [2]) | Colony count (CFPAC-1 cells; [3]) | Colony count (CFPAC-1 cells; [4]) | Colony count (CFPAC-1 cells; [5]) | Colony count (CFPAC-1 cells; [6]) | Colony count (CFPAC-1 cells; [7]) | Colony count (CFPAC-1 cells; [8]) | Colony count (CFPAC-1 cells; [9]) | IC50 (CFPAC-1 cells) [µM] | expression of DNA repair genes BRCA1, BRCA2, FANCD2, FANCG, RAD51 and XRCC3 (HPAF-II cells) | expression of DNA repair genes BRCA1, BRCA2, FANCD2, FANCG, RAD51 and XRCC3 (PaTu899S cells) | expression of DNA repair genes BRCA1, BRCA2, FANCD2, FANCG, RAD51 and XRCC3 (AsPC-1 cells) | Colony count (CFPAC-1 cells; CFPAC-1, Test 2, 0.5x IC50: dose Olaparib 3.125, Ex 1 0.0135, combination both 1:1) | IC50 (CFPAC-1 cells; Homo sapiens) [µM]
1 | Cn1c(=O)c2c(ncn2CC(=O)Nc2ccc(-c3ccccc3)nn2)n(C)c1=O [Ex 1, 2-(1,3-dimethyl-2,6-dioxo-2,3-dihydro-1H-purin-7 (6H)-yl)-N-(6-phenylpyridazin-3-yl)acetamide] | 441 and 464 | 445 and 505 | 386 and 412 | 346 and 322 | 315 and 320 | 676 and 624 | 649 and 563 | 581 and 588 | 536 and 527 | 0.027 | inhibited the expression of DNA repair genes | inhibited the expression of DNA repair genes | inhibited the expression of DNA repair genes | – | –
2 | O=C(c1cc(Cc2n[nH]c(=O)c3ccccc23)ccc1F)N1CCN(C(=O)C2CC2)CC1 [Olaparib, reference compound] | 441 and 429 | 314 and 309 | 259 and 289 | 194 and 196 | 80 and 97 | 586 and 545 | 328 and 371 | 254 and 255 | 116 and 111 | – | – | – | – | 439 and 442 | 6.25
